These results are taken from US9926282B2, “Phthalazinones and isoquinolinones as rock inhibitors” (BRISTOL-MYERS SQUIBB COMPANY, priority 2013, dated 2018).

One experiment deals with neointimal formation. The note with it: rats; cited from earlier work.
Experiment [1] relates to congestive heart failure in Dahl salt-sensitive rats. Conditions: cited from earlier work.
Another experiment deals with rat stroke model. The note with it: cited from earlier work.
Another experiment addresses ROCK1 (Homo sapiens (Human), UniProt Q13464). Kind of experiment: ROCK assay (LABCHIP peptide phosphorylation), ROCK1. It counts as biochemical. The note with it: 5 μM ATP, 1.5 μM peptide substrate; read-out: ROCK1 IC50.
The target in the next experiment is ROCK2 (Homo sapiens (Human), UniProt O75116). Kind of experiment: ROCK assay (LABCHIP peptide phosphorylation), ROCK2. It counts as biochemical. The note with it: 5 μM ATP, 1.5 μM peptide substrate.
Sequence of ROCK2 (O75116 whole entry, species assumed): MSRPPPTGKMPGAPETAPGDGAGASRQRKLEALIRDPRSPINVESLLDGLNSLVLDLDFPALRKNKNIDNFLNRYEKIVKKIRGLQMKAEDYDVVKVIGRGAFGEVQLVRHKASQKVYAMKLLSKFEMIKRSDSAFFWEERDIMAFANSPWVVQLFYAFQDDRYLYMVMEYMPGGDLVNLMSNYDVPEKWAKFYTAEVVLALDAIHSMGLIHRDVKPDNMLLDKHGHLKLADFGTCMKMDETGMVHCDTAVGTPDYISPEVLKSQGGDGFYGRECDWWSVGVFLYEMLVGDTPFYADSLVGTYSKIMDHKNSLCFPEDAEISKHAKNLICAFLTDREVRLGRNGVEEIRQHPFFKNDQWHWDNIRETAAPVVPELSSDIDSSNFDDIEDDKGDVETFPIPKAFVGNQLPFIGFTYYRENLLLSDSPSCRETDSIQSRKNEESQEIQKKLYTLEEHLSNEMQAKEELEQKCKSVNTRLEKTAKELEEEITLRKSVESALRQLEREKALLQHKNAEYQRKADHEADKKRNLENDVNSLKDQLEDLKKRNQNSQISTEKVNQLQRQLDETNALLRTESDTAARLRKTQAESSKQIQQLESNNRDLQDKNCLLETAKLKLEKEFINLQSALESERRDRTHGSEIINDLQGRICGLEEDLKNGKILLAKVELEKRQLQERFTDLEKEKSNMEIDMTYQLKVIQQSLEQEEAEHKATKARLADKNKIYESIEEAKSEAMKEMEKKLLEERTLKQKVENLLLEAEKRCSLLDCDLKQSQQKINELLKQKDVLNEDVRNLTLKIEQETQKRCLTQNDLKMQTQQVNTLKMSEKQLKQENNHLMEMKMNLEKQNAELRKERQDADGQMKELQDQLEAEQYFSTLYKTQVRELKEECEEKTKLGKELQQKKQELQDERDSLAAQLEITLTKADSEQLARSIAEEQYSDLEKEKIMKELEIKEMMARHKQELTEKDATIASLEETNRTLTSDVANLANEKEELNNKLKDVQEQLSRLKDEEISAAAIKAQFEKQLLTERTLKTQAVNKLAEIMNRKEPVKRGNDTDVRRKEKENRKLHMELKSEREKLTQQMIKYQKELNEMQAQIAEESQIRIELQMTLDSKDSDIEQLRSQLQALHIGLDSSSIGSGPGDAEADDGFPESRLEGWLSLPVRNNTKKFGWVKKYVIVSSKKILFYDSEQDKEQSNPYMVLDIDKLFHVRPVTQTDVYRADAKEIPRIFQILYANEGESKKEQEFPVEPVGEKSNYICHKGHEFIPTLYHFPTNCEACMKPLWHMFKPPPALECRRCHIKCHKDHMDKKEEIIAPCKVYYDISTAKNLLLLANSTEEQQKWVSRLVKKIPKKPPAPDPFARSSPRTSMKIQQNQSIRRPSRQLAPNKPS

Sequence of ROCK1 (Q13464 whole entry, species assumed): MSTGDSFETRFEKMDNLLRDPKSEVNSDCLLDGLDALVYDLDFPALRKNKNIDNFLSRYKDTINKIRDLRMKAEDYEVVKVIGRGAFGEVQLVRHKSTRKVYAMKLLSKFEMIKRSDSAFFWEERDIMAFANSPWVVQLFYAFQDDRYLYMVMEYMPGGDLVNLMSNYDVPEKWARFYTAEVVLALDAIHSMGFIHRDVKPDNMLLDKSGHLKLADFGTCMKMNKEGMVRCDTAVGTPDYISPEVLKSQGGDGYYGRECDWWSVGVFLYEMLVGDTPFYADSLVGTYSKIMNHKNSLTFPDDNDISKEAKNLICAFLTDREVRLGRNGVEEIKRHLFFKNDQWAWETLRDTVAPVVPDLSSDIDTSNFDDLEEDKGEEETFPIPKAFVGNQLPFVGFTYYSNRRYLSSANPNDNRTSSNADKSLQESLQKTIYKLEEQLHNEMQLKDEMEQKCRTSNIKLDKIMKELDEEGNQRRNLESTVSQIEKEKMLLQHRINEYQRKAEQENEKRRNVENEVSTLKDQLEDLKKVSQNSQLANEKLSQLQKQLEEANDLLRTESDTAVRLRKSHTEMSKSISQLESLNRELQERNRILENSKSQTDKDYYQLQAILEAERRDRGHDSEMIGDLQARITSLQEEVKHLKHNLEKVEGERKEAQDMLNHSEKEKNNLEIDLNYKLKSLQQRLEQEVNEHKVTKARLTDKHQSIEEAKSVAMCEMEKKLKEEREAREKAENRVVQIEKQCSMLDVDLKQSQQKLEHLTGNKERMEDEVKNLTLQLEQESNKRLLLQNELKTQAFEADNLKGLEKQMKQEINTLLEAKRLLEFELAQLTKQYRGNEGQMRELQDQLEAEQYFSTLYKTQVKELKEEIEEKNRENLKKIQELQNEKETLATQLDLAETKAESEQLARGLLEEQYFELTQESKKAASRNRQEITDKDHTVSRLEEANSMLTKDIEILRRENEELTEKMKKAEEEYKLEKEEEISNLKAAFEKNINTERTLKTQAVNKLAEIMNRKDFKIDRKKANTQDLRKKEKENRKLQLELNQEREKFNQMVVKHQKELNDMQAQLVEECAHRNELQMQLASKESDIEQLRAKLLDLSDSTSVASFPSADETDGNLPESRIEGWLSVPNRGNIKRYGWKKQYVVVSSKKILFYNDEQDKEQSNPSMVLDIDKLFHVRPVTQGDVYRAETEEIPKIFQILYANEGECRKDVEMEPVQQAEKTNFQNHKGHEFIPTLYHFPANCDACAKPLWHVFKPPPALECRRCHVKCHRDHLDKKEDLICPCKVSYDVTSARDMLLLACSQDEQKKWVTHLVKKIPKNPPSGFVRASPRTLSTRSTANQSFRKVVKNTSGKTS

Regarding `C[C@@H](N)[C@H]1CC[C@H](C(=O)Nc2ccncc2)CC1` [Example Y-27632], the neointimal formation result with neointimal formation is reported as “inhibited neointimal formation”. Further, the “ventricular hypertrophy, fibrosis and function” value in experiment [1] is “improve ventricular hypertrophy, fibrosis and function”.

For `O=S(=O)(c1cccc2cnccc12)N1CCCNCC1` [fasudil], the “infarct size and neurologic deficit” value in the experiment with rat stroke model was “reduce both the infarct size and neurologic deficit”.

On to `Cc1cc(NC(=O)c2nn(CC3CCN(C(=O)OCc4ccccc4)CC3)c3ccccc23)ccc1-c1n[nH]c(=O)c2ccccc12` [Example 307, benzyl 4-[(3-{[3-methyl-4-(4-oxo-3,4-dihydrophthalazin-1-yl)phenyl]carbamoyl}-1H-indazol-1-yl)methyl] piperidine-1-carboxylate], for which the results for the half-maximal inhibitory concentration (IC50) on ROCK1 and on ROCK2 were 101 to 1000 nM and 0.1 to 100 nM, respectively.

Consider `O=C(Nc1ccc(-c2n[nH]c(=O)c3ccccc23)cc1)c1ccnn1-c1ccccc1` [Example 236, N-[4-(4-oxo-3,4-dihydrophthalazin-1-yl)phenyl]-1-phenyl-1H-pyrazole-5-carboxamide], for which the IC50 at ROCK1 lay within 101 to 1000 nM; against ROCK2, 0.1 to 100 nM.

As for `O=C(Nc1ccc(-c2n[nH]c(=O)c3ccccc23)cc1)c1nn(CC2CCN(CCCCO)CC2)c2ccccc12` [Example 322, 1-((1-(4-Hydroxybutyl)piperidin-4-yl)methyl)-N-(4-(4-oxo-3,4-dihydrophthalazin-1-yl)phenyl)-1H-indazole-3-carboxamide], the IC50 lay in the range of 0.1 to 100 nM at ROCK1 and 101 to 1000 nM on ROCK2.

For `CN(C)c1ccc(C(=O)Nc2ccc(-c3n[nH]c(=O)c4ccccc34)cc2)cc1` [Example 58, 4-(dimethylamino)-N-[4-(4-oxo-3,4-dihydrophthalazin-1-yl)phenyl]benzamide], the IC50 at ROCK1 and at ROCK2 was 0.1 to 100 nM each time.

Regarding `O=C(Nc1ccc(-c2n[nH]c(=O)c3ccccc23)cc1)c1cn2ccccc2n1` [Example 89, N-[4-(4-oxo-3,4-dihydrophthalazin-1-yl)phenyl]imidazo[1,2-a]pyridine-2-carboxamide], the IC50 at ROCK1 lay in the range of 101 to 1000 nM; at ROCK2 it was 0.1 to 100 nM.

With `Cn1nc2c(c1C(=O)Nc1ccc(-c3n[nH]c(=O)c4ccccc34)cc1)CCCC2` [Example 116, 2-methyl-N-[4-(4-oxo-3,4-dihydrophthalazin-1-yl)phenyl]-4,5,6,7-tetrahydro-2H-indazole-3-carboxamide], the IC50 on ROCK1 and on ROCK2 was 0.1 to 100 nM throughout.

On to `O=C(Nc1ccc(-c2n[nH]c(=O)c3ccccc23)cc1)c1cn2ccncc2n1` [Example 133, N-[4-(4-oxo-3,4-dihydrophthalazin-1-yl)phenyl]imidazo[1,2-a]pyrazine-2-carboxamide], for which the concentration for half-maximal inhibition (IC50) on ROCK1 lay in the range of 101 to 1000 nM; at ROCK2, 0.1 to 100 nM.

Consider `O=C(Nc1ccc(-c2n[nH]c(=O)c3ccccc23)cc1)c1nn(CC2CCN(C(=O)OCCF)CC2)c2ccccc12` [Example 350, 2-Fluoroethyl 4-[(3-{[4-(4-oxo-3,4-dihydrophthalazin-1-yl)phenyl]carbamoyl}-1H-indazol-1-yl)methyl]piperidine-1-carboxylate], for which the half-maximal inhibitory concentration (IC50) on ROCK1 and against ROCK2 was 0.1 to 100 nM in each case.

As usually defined, the IC50 is the concentration needed to halve the response being measured.
